The record followed here is a melting point compilation (Tetko et al.; mined from patent text by program, amines drawn as free bases though some values may be those of a salt).

With `Cc1cccc2c1C(=O)N(C1CCC(=O)NC1=O)C2=O` (centres undefined), the melting point – broadly, the temperature, or range, at which the solid turns liquid – is 290 to 292 °C.
Consider `CNc1nc(-c2cccc(NC(=O)c3ccccc3OC)c2)c2cc(OC)c(OC)cc2n1`, for which the melting point is 194 to 196 °C.
For `CCOC(=O)c1c[nH]cc1-c1ccc(C)cc1`, the melting point lay in the range of 154 to 155 °C.
In turn, `CC1(C)CC(=O)CC(C)(C)N1CCCCCCN1C(C)(C)CC(=O)CC1(C)C` yielded a melting point of 151 to 152 °C.
In turn, `CC(=O)Nc1ncc(Sc2ccc(O)cc2)s1` displayed a melting point of 265 to 267 °C.
With `Cc1cc(OCC(=S)Nc2cccc(C(=O)O)c2)ccc1C(C)C`, the melting point lay in the range of 174 to 176 °C.
In the case of `N#Cc1ccc(NC(=S)NCc2cccnc2)cc1`, the melting point amounted to 181 °C.
For the compound `COc1cccc(OC)c1C=CC(=O)c1ccccc1`, the melting point was 54.9 to 55.8 °C.
`Cc1ccc(C(=S)c2ccc(F)cc2)cc1` gave a melting point of 88 °C.
With `BrCCCCCc1nnnn1C1CCCCC1`, the melting point fell in the range of 57 to 59 °C.
Take `CCN(C(=O)OC)c1c(C(=O)c2cnoc2C2CC2)ccc(S(C)(=O)=O)c1Cl`: the melting point was in the range of 128 to 131 °C.
The figure for `COC(=O)CCCc1ccc(NC(=O)[C@@H](Cc2ccc(OCc3ccccc3)cn2)NC(=O)OC(C)(C)C)cc1` is 166 to 167 °C; for `O=C(NC(Cc1ccccc1)C(=O)O)c1ccc(-c2ccc(OCc3ccccc3)cc2)nc1` (centres undefined) it is 240 °C; for `COc1cc2ccccc2cc1N(C)C(=O)N1CCN(c2cc(C)cc(C)c2)CC1` it is 134 to 136 °C.
Compound `CCOc1ccc2[nH]c(=O)n(C3CCCC3)c2c1` had a melting point of 75 °C.
Consider `COc1ccc2c(C)c(CCO)c(=O)oc2c1OC`, for which the melting point was in the range of 113 to 114 °C.
Take `CC(C)(C)[Si](C)(C)Oc1ccc2c(N3C(=O)c4ccccc4C3=O)n[nH]c2c1`: the melting point is 207 to 209 °C.
The figure for `Cc1nn(-c2c(Cl)cc(C(F)(F)F)cc2Cl)c(NCC(=O)O)c1SC(F)(F)F` is 168 to 170 °C; for `C[C@H](N=C(C(=O)O)C(C)(C)C)c1ccccc1` it is 135 to 136 °C; for `N#CC1(C#N)C2CC(C3OC32)C1(Cl)Cl` (centres undefined) it is 229 °C.
Compound `COc1ccc(Nc2nc(Nc3cc4c(cc3OC)CCN(CC(=O)N(C)C)CC4)ncc2Cl)c(S(=O)(=O)C(C)C)c1` showed a melting point of 68 to 79 °C.
Compound `CCSc1cnc(Oc2ccc(Cl)c(Cl)c2)c(C#N)c1` came in with a melting point of 114 to 115 °C.
`CCCN1CCCN(c2c(N3CCCN(CCC)CC3)c(=O)c2=O)CC1` registered a melting point of 90 to 92 °C.
The compound `CCC(NC(C)=O)c1ccc(Cl)c2nc3n(c12)CCCN3c1ccc(Cl)cc1Cl` (centres undefined) gave a melting point of 237 to 239 °C.
The compound `C=CCNc1nc(CO)cs1` had a melting point of 74 to 75 °C.
In turn, `CCOC(=O)C1=C[C@@H](OC(CC)CC)[C@@H](NC(C)=O)[C@H](N=[N+]=[N-])[C@@H]1OS(C)(=O)=O` displayed a melting point of 96 to 98 °C.
Compound `COC1=NC(c2cccc([N+](=O)[O-])c2)C(C(=O)OC(C)C)=C(C)N1` (centres undefined) yielded a melting point of 130 to 132 °C.
`Cc1ccc(S(=O)(=O)Nc2ccc(C(=O)CN3CCN(c4ccncc4)CC3)cc2)cc1` returned a melting point of 168 to 170 °C.
In turn, `Cc1cccc2c(Cc3nc4c(F)c(F)cc(F)c4s3)cn(CC(=O)O)c12` registered a melting point of 216 to 218 °C.
In the case of `CC(C)=CCCC(C)=CC=C1SC(=S)N(CC(=O)O)C1=O` it was 95 to 98 °C; in that of `CC(C)NCC(O)COc1ccc(-c2oc3ccccc3c2C(=O)c2ccccc2)cc1` (centres undefined), 53 to 59 °C; in that of `CC(C)(C)OC(=O)NCCC(=O)NC(CC(=O)OCc1ccccc1)c1ccccc1` (centres undefined), 124 to 126 °C.
For `CN(C)C(CC(F)C(=O)c1ccccc1)N1CCC(O)(c2ccc(Cl)cc2)CC1` (centres undefined), the melting point fell in the range of 160 to 163 °C.
In turn, `CNc1nc(C)c(-c2cccnc2)s1` showed a melting point of 152 to 153 °C.
`CCOC(=O)c1c(C(F)(F)F)nc(C(F)F)c(C(=O)O)c1NC1CC1` came in with a melting point of 120 to 122 °C.
For the compound `O=C(Nc1cc(F)cc(F)c1)c1ccccn1`, the melting point was in the range of 111 to 113 °C.
Compound `N#Cc1nn(-c2c(Cl)cc(C(F)(F)F)cc2Cl)c(N)c1-c1ccsc1C(F)(F)F` yielded a melting point of 162 °C.
In the case of `COC(=O)c1cc(C(=O)c2c(C)c(OC)c3c(OCC(=O)O)cccn23)ccc1N` it was 164 °C.
Compound `Cc1ccc2c(NC(=NC#N)NC(NC(=O)Cc3ccc(Cl)cc3)C(C)(C)C)cccc2n1` (centres undefined) yielded a melting point of 198 to 199 °C.
Take `O=c1[nH]c2ccccc2n1CCCN1CCC(C(O)(c2ccc(F)cc2)c2ccc(F)cc2)CC1`: the melting point fell in the range of 141 to 143 °C.
`O=C1C=CC=C2C=CC=C12` showed a melting point of 70 to 71 °C.
Turning to `COCCOCOc1c(C(C)(C)C)nc(C=NO)nc1C(C)(C)C`, the melting point was 90 to 97 °C.
In turn, `CCOC(=O)c1c[nH]c2nc(N3CCN(C(=O)OCC)CC3)c(F)cc2c1=O` returned a melting point of 279 to 281 °C.
The compound `CCOC(=O)c1cc(=O)c2ccc([N+](=O)[O-])c(C)c2o1` yielded a melting point of 120 °C.
On to `COc1ccc(C=CC(=O)CN2CCOCC2)cc1`, for which the melting point was determined as 78 °C.
`COC/C(=C1/SC(=O)NC1=O)c1cccc2ccccc12` gave a melting point of 133 to 134 °C.
Compound `O=C(c1ccccc1C(c1ccc(O)cc1)c1ccc(O)cc1)N1CCSCC1` registered a melting point of 259 to 261 °C.
Turning to `CC(=O)NC[C@H]1CN(c2ccc(N3CCC(n4cccc4)CC3)c(F)c2)C(=O)O1`, the melting point was 208 to 210 °C.
For the compound `C=CCc1cc(C(=O)OC)ccc1-c1ccc(OC)c(OC)c1`, the melting point was 99 to 103 °C.
In the case of `CC1(C)Oc2cnccc2C2OC21` (centres undefined) it was 110 to 112 °C; in that of `CCOC(=O)C1=C(C)NC(C)=C(C(=O)OCCN2CCN(C(c3ccc(C)cc3)c3ccc(C)cc3)CC2)C1c1cccc([N+](=O)[O-])c1` (centres undefined), 82 to 85 °C.
In the case of `COC1OC2OC3(C)CCC4C(C)CCC(C1C)C24OO3` (centres undefined) it was 73 to 74.5 °C; in that of `O=C(Nc1ccc2c(c1)CCC2)C(=O)N1CCC(Cc2ccccc2)CC1`, 106 to 109 °C; in that of `O=C1NC(=O)C(c2c[nH]c3ccccc23)=C1c1c[nH]c2ccccc12`, 234 °C.
In the case of `COC(=O)c1cccc(-c2cccc(CC(=O)O)c2)c1` it was 84.5 to 85.5 °C.
`c1ccc2c(c1)C[C@H]1CSC(=Nc3cnccn3)N1C2`: the melting point was determined as 140 °C.
In turn, `O=C(NCC1Cc2cccc(-c3c(Cl)cccc3Cl)c2O1)OCc1ccccc1` (centres undefined) yielded a melting point of 198 to 200 °C.
In turn, `N#Cc1cccc(-c2c(C(N)=O)c3n(c2Cl)CCN(C(=O)NC2CCOCC2)C3)c1` came in with a melting point of 236 to 238 °C.
`ON=Cc1ccc(-c2ccc(O)cc2)c2sccc12` gave a melting point of 230 to 231 °C.
With `O=C(Nc1ccc2c(c1)OC(F)(F)O2)N1CC(c2ccc(Cl)cc2)=C(c2ccc(Cl)cc2)N1`, the melting point lay in the range of 150 to 155 °C.
Take `Cc1ccc(-c2c(C(=O)Nc3nccs3)nc(-c3cccc4ccccc34)n2CCN2CCOCC2)cc1`: the melting point was 226 to 227 °C.
As for `CCOC(=O)C(Cc1nc2cc(Cl)c(Cl)cc2nc1CP(=O)(OC)OC)(NC(C)=O)C(=O)OCC`, the melting point lay in the range of 130 to 132 °C.
Regarding `C=CCOc1ccc(COc2ccc(CC(=O)O)cc2Cl)cc1`, the melting point was 106 to 107 °C.
Consider `CC(C)(C)c1cc(C(=O)c2ccccc2)cc(CN2CCC(O)CC2)c1O`, for which the melting point is 156 to 157 °C.
In the case of `S=c1n(CN2CCCC2)nc(-c2ccncc2)n1-c1ccccc1`, the melting point is 139 °C.
`O=C(O)CCCCCN1C(=O)c2ccc(C(=O)O)cc2C1=O` returned a melting point of 202 to 204 °C.
`COc1ccc(-c2ccc3c(c2)C2(CO3)C(=O)N(Cc3ccc(Cl)s3)c3ccccc32)cn1` (centres undefined) showed a melting point of 60 to 62 °C.
Compound `COC(=O)c1ccc(Cl)c(NN)c1` yielded a melting point of 218 to 220 °C.
`O=Cc1nn(-c2ccccc2)c2c1CCCC2` returned a melting point of 60 °C.
The figure for `NCC(O)c1ccc([N+](=O)[O-])cc1` (centres undefined) is 138 to 139 °C.
In the case of `Nc1ncc2ncn(OC(CO)CCO)c2n1` (centres undefined) it was 178 to 179 °C; in that of `CCNC(=O)c1cc(NC(=O)c2ccccc2)ccc1[Si](C)(C)C`, 185 to 187 °C.
`COC(=O)CC[C@H](NC(=O)OCc1ccccc1)C(=O)O` gave a melting point of 61 to 63 °C.
With `CC(=O)N[C@@H](C)COc1cc(-c2nc3cc(OCC4CC4)ccc3o2)on1`, the melting point lay within 156 to 157 °C.
The compound `NS(=O)(=O)c1ccc2c(c1)S(=O)(=O)NC1CCCN21` (centres undefined) displayed a melting point of 260 to 262 °C.
Compound `CC(=O)c1ccc2c(c1)C(N1CCCC1=O)=CC(C)(C)O2` yielded a melting point of 106 to 108 °C.
For `Cc1ccc(S(=O)(=O)N(NC=O)c2ccc(NC(=S)Oc3ccccc3)cc2)cc1`, the melting point lay within 195 to 196 °C.
`CCN1CCC(=O)N(c2ccccc2F)C1=S` had a melting point of 101 to 104 °C.
Take `CNC(=O)c1ccccc1Nc1nc(Nc2cc3c(cc2OC)CC(=O)N(CCCN2CCOCC2)CC3)ncc1Cl`: the melting point was in the range of 92 to 100 °C.
`Cc1cccc(-c2c[nH]c(=O)c(C#N)c2)c1`: the melting point lay in the range of 254 to 260 °C.
In turn, `CCc1nc2c(c(C)c(C)n3nnnc23)n1CCOCCNS(=O)(=O)CCCCl` had a melting point of 126 to 129 °C.
With `O=[N+]([O-])C1=C2N(Cc3ccc(Cl)nc3)CCN2C2CCC1O2` (centres undefined), the melting point is 149 to 150 °C.
The figure for `CC(=O)Oc1ccc(C=CC(=O)C=Cc2ccc(OC(C)=O)cc2)cc1` is 167 to 168 °C.
Compound `CCCCCCCCCCCC1=NCCN1CCCCO` displayed a melting point of 58 to 60 °C.
`CCCCCCCCCCCCC(=O)c1noc(CCCCCCCCCCCC)c1[N+](=O)[O-]` came in with a melting point of 60 to 62 °C.
Compound `CC1(C)CC(n2ccc(-c3ccc(F)cc3)c2-c2ccncc2)CC(C)(C)N1` returned a melting point of 118 to 119 °C.
In the case of `CCOC(=O)NCCOC(=O)COc1cc(Oc2ccc(C(F)(F)F)cc2Cl)ccc1[N+](=O)[O-]`, the melting point was 94 to 95 °C.
In the case of `N#CCc1ccc(NC(=O)C=C2CC(C(=O)O)Nc3cc(Cl)cc(Cl)c32)cc1` (racemic), the melting point lay in the range of 200 to 202 °C.
As to `CNC(=O)c1cccc(CN2CCN(c3nc(C)c(-c4cc(C)n[nH]4)s3)C2=O)c1`, the melting point lay within 259 to 261 °C.
